Assay results: patent US12070452B2, “Compounds targeting HSP110 protein for cancer treatment” (INSERM (Institut National de la Santé et de la Recherche …, priority 2018, dated 2024)

How the values were obtained:
HSP110/Myd88 interaction = molecular target: T1, HSP110/Myd88 interaction (Homo sapiens, UniProt Q92598); test: Immunoprecipitation of HSP110/Myd88 in DLBCL cell line; format: cell-based; details: IP Myd88, Western Blot
T1 construct: endogenous in cells
Text: FIG. 10A: Immunoprecipitation (IP) analysis of HSP110 (first line), Myd88 (second line), heavy chains (third line) and actin (fourth line) in large B cell lymphoma cell lines (DLBCL).
Left part of FIG. 10A (“Inputs”): treated with (from left to right column of the left part of FIG. 10A) DMSO, compound 52 (5052), compound 33 (5033) and compound 61 (5061) (Negative control);
Middle part of FIG. 10A (“IP Myd88”): treated with (from left to right column of the middle part of FIG. 10A) DMSO, compound 52, compound 33 and compound 61 (as the negative control); Myd88 was immunoprecipitated with an antibody specifically directed against Myd88.
MyD88 was immuno-precipitated from the cell line which has been non-treated or treated with the HSP110 inhibitors.

TMD8 human DLBCL cells = test: TMD8 DLBCL xenograft in immunodeficient mice, tumor growth; format: in vivo; details: 10 or 20 mg/kg intraperitoneally
Description: FIG. 11A: Tumor volume monitoring of TMD8 human DLBCL cells grown in Immunodeficient mice treated intraperitoneally with the compound 52 (=inhibitor 52) at 10 or 20 mg/kg or with vehicle at the same frequency. (Abscissa: Days from 0 to 25 in day; Ordinate: Tumor volume in mm^3 from 0 to 4000 (scale 1000)).
FIG. 11B: Tumor weight monitoring of TMD8 human DLBCL cells grown in Immunodeficient mice treated intraperitoneally with the compound 52 (=inhibitor 52) at 10 or 20 mg/kg or with vehicle at the same frequency. (Abscissa: Treatments vehicle, 10 mg/kg or 20 mg/kg of compound 52; Ordinate: Tumor weight in g from 0 to 4 g (scale 1)).

HCT116 tumors = test: Immunofluorescence of cleaved caspase-3 in HCT116 tumor slides (NOD/SCID); format: in vivo, human; details: NOD/SCID model
Description: (§1) FIG. 7C: Immunofluorescence assay of Cleaved caspase-3 (C3C) in HCT116 from NOD mice tumors treated with VEH (column on the left) or with compound 33 (column on the right). […] (Ordinate: Caspase-3 cleaved relative fluorescence in percentage). Statistical analysis has been performed by ANOVA (***=p=0.0003). Scale bar=50 μm.
(§2) Two different colorectal mouse models were used: a syngeneic model for which mouse colon cancer CT-26 cells were injected into Balb/c mice and a NOD/SCID model in which mice were implanted with human colorectal cancer HCT116 cells (FIG. 4 A-B). When the tumor reached a size of −2 mm, mice were treated intraperitoneally with the compound 33 at 5 mg/Kg (BALB/c n=11, NOD SCID n=6) or corn oil 5% DMSO (BALB/c n=10, NOD SCID n=6), every three days until the end of the experiment. The compound 33 was dissolved in DMSO, then diluted 20 times in corn oil (Sigma Aldrich-C8267) and sterilized by filtration with PTFE membrane Millex 0.2 μm (Millipore-SLFG025LS). Tumors were analyzed before reaching 2000 mm3. Treatment by compound 33 induces a decrease in tumor growth of 40% and 60% in the Balb/c and NOD mice, respectively (FIGS. 6A and 6B).

[1] = test system: mouse colon cancer CT-26 cells; test: Tumor growth, syngeneic CT-26 model in Balb/c mice; format: in vivo; details: CT-26, 5 mg/Kg intraperitoneally every three days
Description: FIG. 6A: Tumor volume monitoring of CT26 cells in Balb/c mice control-treated (Ctrl—line with circle) and treated with the compound 33 (5 mg/kg—line with square). Animals were treated by intraperitoneally injection every three days. (Abscissa: Days from 0 to 16 in day; Ordinate: Tumor volume in mm^3 from 0 to 200 (scale 500))
as §2

[2] = test system: human colorectal cancer HCT116 cells; test: Tumor growth, HCT116 xenograft in NOD/SCID mice; format: in vivo; details: HCT116, 5 mg/Kg intraperitoneally every three days
Description: FIG. 6B: Tumor volume monitoring of HCT116 cells grown in NOD/SCID animals treated intraperitoneally either with a non-relevant compound which is DMSO (named VEH line with circle) or treated with the compound 33 (5 mg/kg—line with square) (Abscissa: Days from 0 to 62 in day; Ordinate: Tumor volume in mm^3 from 0 to 2500 (scale 500)).
as §2

CT26 tumors = test: Immunofluorescence of P-STAT3 and cleaved caspase-3 in CT26 tumor slides (Balb/c); format: in vivo, mouse
Text: FIG. 7A: Immunofluorescence assay of P-STAT3 (Phosphorylated STAT3) in CT26 cells in Balb/c mice tumors treated with VEH (non-relevant compound which is DMSO) (column on the left) or with compound 33 (column on the right). […] Statistical analysis has been performed by ANOVA (*=p=0.0019).
as §1, with “7B:” for “7C:”, “cleaved” for “Cleaved”, “CT26 cells in Balb/c” for “HCT116 from NOD”, “(***=p=0.0003)” for “(***=p=0.0003). Scale bar=50 μm.”
as §2, with “Treatment by compound 33 induces a decrease in tumor growth of 40% and 60% in the Balb/c and NOD mice, respectively (FIGS. 6A and 6B).” left out

[3] = test system: DLBCL cell lines (HBL1, TMD8, U2932); test: Viability of B-cell lymphoma cell lines, combination with Ibrutinib; format: cell-based, human; details: compound 33 at suboptimal 10 μM, Ibrutinib 0.01-100 nM
Description: FIG. 12: Viability of various B-cell lymphoma cell lines treated with a suboptimal concentration of compound 33 (i) alone or (ii) in combination with increasing concentrations of Ibrutinib.
Groups of bars, from the left to the right of FIG. 12: (i) HBL1 human diffuse large B-cell lymphoma cell line not treated with compound 33 and treated with and increasing concentrations of Ibrutinib, (ii) HBL1 human diffuse large B-cell lymphoma cell line treated with 10 μM of compound 33 and increasing concentrations of Ibrutinib, (iii) TMD8 human B cell lymphoma cell line not treated with compound 33 and treated with and increasing concentrations of Ibrutinib, (iv) TMD8 human B cell lymphoma cell line treated with 10 μM of compound 33 and increasing concentrations of Ibrutinib, (v) U2932 human diffuse large B-cell lymphoma cell line not treated with compound 33 and treated with and increasing concentrations of Ibrutinib, and (vi). U2932 human diffuse large B-cell lymphoma cell line treated with 10 μM of compound 33 and increasing concentrations of Ibrutinib.
In each group of bars, form the left to the right: (i) Control (0 nM), without treatment with Ibrutinib, (ii) Ibrutinib at 0.01 nM, (iii) Ibrutinib at 0.1 nM, (iv) Ibrutinib at 1 nM, (v) Ibrutinib at 10 nM, (vi) Ibrutinib at 100 nM.

T1 sequence (Q92598 2-858 limits assumed): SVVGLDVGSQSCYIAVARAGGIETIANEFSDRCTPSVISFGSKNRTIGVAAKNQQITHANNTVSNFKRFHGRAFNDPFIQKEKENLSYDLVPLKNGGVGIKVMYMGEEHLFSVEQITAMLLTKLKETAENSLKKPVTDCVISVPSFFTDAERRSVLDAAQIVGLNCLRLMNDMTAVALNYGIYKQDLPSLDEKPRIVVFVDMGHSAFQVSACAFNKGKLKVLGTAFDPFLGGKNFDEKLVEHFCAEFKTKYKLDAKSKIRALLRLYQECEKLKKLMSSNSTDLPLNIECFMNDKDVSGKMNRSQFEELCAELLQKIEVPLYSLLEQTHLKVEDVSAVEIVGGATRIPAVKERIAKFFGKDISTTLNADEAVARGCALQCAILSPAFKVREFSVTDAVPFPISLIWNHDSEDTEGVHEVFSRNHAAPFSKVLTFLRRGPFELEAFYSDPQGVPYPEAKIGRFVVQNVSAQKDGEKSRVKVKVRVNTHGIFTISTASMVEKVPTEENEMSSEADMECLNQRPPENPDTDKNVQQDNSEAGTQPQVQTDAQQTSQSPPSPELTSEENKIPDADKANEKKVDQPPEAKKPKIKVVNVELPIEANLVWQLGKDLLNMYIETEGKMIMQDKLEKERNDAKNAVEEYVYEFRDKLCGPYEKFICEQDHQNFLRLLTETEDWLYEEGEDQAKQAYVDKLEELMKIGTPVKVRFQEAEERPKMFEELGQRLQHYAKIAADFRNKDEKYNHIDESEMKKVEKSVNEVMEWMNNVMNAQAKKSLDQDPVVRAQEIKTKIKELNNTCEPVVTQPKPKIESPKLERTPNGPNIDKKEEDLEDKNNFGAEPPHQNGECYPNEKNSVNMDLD

COc1cc(-c2cnc(-c3cnc(-c4cc(OC)c(OC)c(OC)c4)c(C)c3)c(/C=C/c3ccccc3)c2)cc(OC)c1OC [compound 52, (E)-5′-Methyl-3-styryl-5,6′-bis(3,4,5-trimethoxyphenyl)-2,3′-bipyridine] was tested, and the HSP110/Myd88 interaction (HSP110/Myd88 interaction) was “abrogate” and the “tumor growth of xenografted DLBCL cell line” value (TMD8 human DLBCL cells) was “reduced the tumor growth”.
In the case of COc1ccc(-c2ncc(-c3ncc(-c4cc(OC)c(OC)c(OC)c4)cc3/C=C/c3ccccc3)cc2C)cc1OC [compound 33, (E)-6′-(3,4-Dimethoxyphenyl)-5′-methyl-3-styryl-5-(3,4,5-trimethoxyphenyl)-2,3′-bipyridine], the “tumor cell apoptosis (cleaved caspase-3 staining)” value (HCT116 tumors) is reported as “increase in tumor cell apoptosis”, the “decrease in tumor growth” value [1] is reported as 40% and the “decrease in tumor growth” value [2] is reported as 60%. For the same compound, the HSP110/Myd88 interaction (HSP110/Myd88 interaction) was “abrogate”, the “P-STAT3 in tumor slides (relative fluorescence)” value (CT26 tumors; CT26 tumors in Balb/c mice, control 100%) was 50% and the “tumor cell apoptosis (cleaved caspase-3 staining)” value (CT26 tumors; CT26 tumors, Balb/c model) was “increase in tumor cell apoptosis”. For the same compound, the “effect in combination with Ibrutinib on viability” value [3] was “synergistic effect”.
